Laboratory results: patent US8134017B1, “Compound and use thereof” (Riken, priority 2010, dated 2012)
Where “and” joins values, the source holds several entries; their conditions need not be identical. Equal values may be shown once.

Assays:
Assay type in all cases: physicochemical
[1] = UV-vis absorption spectra; settings: 5 M, strong acid TFA/THF mixtures, cationic form
Protocol: (§1) UV-vis spectra were collected on a SHIMADZU UV-1700 spectrophotometer at RT (room temperature) using a 1 cm or a 0.1 cm quartz cuvette. Emission spectra were collected on a HITACHI F-4500 fluorescence spectrophotometer. To obtain an accurate spectrum, spectrum correction was carried out with rhodamine B concentrated solution and a secondary-standard light source. In surface photometry, a cut filter was utilized to eliminate multiple lights, such as secondary light, due to the effects of light scattering. Fluorescence spectra of all samples were measured with excitation with 365 nm. Average particle size was measured by dynamic light scattering (ELSZ-2, Otsuka Electronics).
What molecular species of ABPX are appropriate for the evaluation of AIEE in solution was examined. In order to examine to find the appropriate ABPX01 species, the absorbance spectra of […] of ABPX01 were measured in acid or alkaline solution. In THF solution and 1% TEA/THF mixture, the spectra had no peaks that were attributable to the neutral lactonoid species ABPX01^0. In the strong acid solutions of the TFA/THF mixtures, the absorbance spectra having two peaks at 490 nm and 540 nm should be attributable to the cationic form of ABPX01^+. ABPX01^+ is a quinonoid form delocalized over the luminophore and is therefore appropriate for the emission analysis.
The emission spectra are shown in (a) and (b) of FIG. 13. […]

[2] = Particle size of aggregates by dynamic laser scattering (DLS); settings: 500 μM, 90% water/THF (1% TFA), 25° C.
Protocol: as §1
With the use of dynamic laser scattering (DLS), the particle size of ABPX01^+ was examined in 90% water/THF mixtures (containing 1% TFA) at 25° C. […] As illustrated in (b) of FIG. 14, the particle size of ABPX01^+ aggregates was 500 nm immediately after the preparation of ABPX01^+. The ABPX01^+ aggregates then grew to a size of more than 1200 nm after 30 min. The particle size of ABPX01^+ in methanol and chloroform (respectively, containing 1% TFA) could not be calculated because the fluctuation of the scattered photons was not sufficiently observed owing to the subnanometer size.

[3] = Emission spectra, aggregation-induced emission enhancement (AIEE)
Protocol: as §1
In contrast, the emission behavior of rhodamines in aqueous solution was reported to decrease at 10^−4 M and above because of the formation of the H-dimer. The behavior of ABPX01^+ was directly opposite to the concentration quenching of common hydrophobic dyes.
The AIEE characteristics of 500 μM of ABPX01^+ to ABPX04^+ were investigated in various solvents. […] The emission spectrum of 500 μM of ABPX01^+ in THF was nonemissive.
The problem was solved by using the surface photometric method (FIG. 12). Explained below are the respective surface photometric equipment configurations. […] The problem was solved by using the surface photometric method. A sample holder was set at an angle of 30° with respect to the excitation light. However, attention should be paid to the linearity of the emission intensity against the concentration for the accurate evaluation of high-concentration sample solutions, such as AIEE molecules. In addition, the relative quantum yields of ABPX in solution could not be determined because of the lack of a standard compound. The use of the surface photometric method allows development of an apparatus for the measurement of the absolute fluorescence quantum yields of high-concentration solutions.
The emission spectra are shown in (a) and (b) of FIG. 13. The emission could be observed when 30% volume fraction of water was added. The emission was enhanced when 50% to 90% volume fraction of water was added. Absorption measurements were similarly carried out in water/THF mixtures (containing 1% TFA). As the water fraction increased, the sharp aggregate spectra appearing at approximately 548 and 600 nm grew, as shown in (c) of FIG. 13. From 30% volume fraction of water addition, level-off tails were seen, which were attributed to Mie scattering caused by nanosized particles.
In order to check whether or not restriction of […] rotation (RIR) is involved in AIEE of ABPX01^+, viscochromism and thermochromism of the ABPX01^+ emission were examined. RIR was affected by the viscosity and temperature of the solvent. […] ABPX01^+ inhibited intramolecular rotation and induced AIEE at high viscosity and low temperature.

[4] = Solubility in organic solvents and water

absorbance peaks [1]: 490 nm and 540 nm
particle size of aggregates ([2]; after 30 min): more than 1200 nm
particle size of aggregates ([2]; immediately after preparation): 500 nm
AIEE ([3]; 500 μM in 1% TFA/chloroform, methanol, ethanol or acetone): exhibited AIEE
emission in THF ([3]; 500 μM in THF): nonemissive
volume fraction of water at which emission could be observed ([3]; 500 μM, water/THF mixtures): 30%
emission intensity with increasing concentration ([3]; 5, 50, 500 μM in 1% TFA/methanol, excitation 365 nm): increased
emission with increasing solvent viscosity or decreasing temperature ([3]; glycerol/methanol viscosity increased or methanol temperature decreased): increased
solubility in THF ([4]; THF): easily dissolved
solubility in organic solvents ([4]; chloroform, methanol, acetone, THF, ethanol): easy to dissolve
solubility in water [4]: not easy to dissolve
solubility in water ([4]; listed as ABPX01^+): not in water
Substance: 3′,3″-Bis (oxospriroisobenzofuran)-3,7-bis(diethylamino)benzopyranoxanthene [ABPX01]
